Like-named read-outs stand apart in the source and are kept apart here.
What was measured:
[1] = tested on: Locomotor Activity in Mice; experiment: Inhibition of locomotor activity in mice; assay type: in vivo; settings: for Inhibition of Locomotor Activity in Mice ED50: IP; for ED50: Mus musculus, ip
From the text: (§1) The above test methods are incorporated herein by reference.

[2] = target: T1, [^3 H]-Spiroperidol Binding (Homo sapiens, UniProt P14416); experiment: Inhibition of [^3 H]-spiroperidol binding in a receptor assay
T1 construct: receptor assay described by D. Grigoriadis and P. Seeman, Journal of Neurochemistry, Volume 44, pages 1925-1935 (1985); from tissue
T1 sequence (P14416 whole entry): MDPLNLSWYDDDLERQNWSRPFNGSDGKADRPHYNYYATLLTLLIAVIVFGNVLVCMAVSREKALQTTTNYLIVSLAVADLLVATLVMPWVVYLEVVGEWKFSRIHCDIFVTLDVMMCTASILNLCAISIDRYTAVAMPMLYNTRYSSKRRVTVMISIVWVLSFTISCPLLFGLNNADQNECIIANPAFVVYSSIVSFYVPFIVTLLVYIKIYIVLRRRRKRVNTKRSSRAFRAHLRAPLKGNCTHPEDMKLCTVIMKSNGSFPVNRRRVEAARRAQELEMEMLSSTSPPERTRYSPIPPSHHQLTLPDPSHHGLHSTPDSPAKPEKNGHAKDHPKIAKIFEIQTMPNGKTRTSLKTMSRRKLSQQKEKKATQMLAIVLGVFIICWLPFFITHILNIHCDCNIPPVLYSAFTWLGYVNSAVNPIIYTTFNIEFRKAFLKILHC
From the text: as §1

[3] = read-out: Inhibition of [^3 H]-Spiroperidol Binding IC50

Row | SMILES | Inhibition of Locomotor Activity in Mice ED50 [1] [mg/kg] | IC50 [2, 3] [nM] | ED50 [1] [mg/kg] | IC50 ([2]; Inhibition of [^3 H]-Spiroperidol Binding IC50) [nM]
1 | OC1(c2ccccn2)CCC(N2CCN(c3ccccn3)CC2)CC1 (stereo not drawn) [Example 20, trans-1-(2-Pyridinyl)-4-[4-(2-pyridinyl)-1-piperazinyl]cyclohexanol] | > 30 |  |  | 
2 | OC1(c2cccnc2)CCC(N2CCN(c3ccccn3)CC2)CC1 (stereo not drawn) [Example 22, trans-1-(3-Pyridinyl)-4-[4-(2-pyridinyl)-1-piperazinyl]cyclohexanol] | 30 | 12500 |  | 
3 | OC1(c2ccc(Cl)cc2)CCC(N2CCN(c3ccccn3)CC2)CC1 (stereo not drawn) [Example 1, trans-1-(4-Chlorophenyl)-4-[4-(2-pyridinyl)-1-piperazinyl]cyclohexanol] | 2.3 | 333 |  | 
4 | O=C(N[C@H]1CC[C@H](CCN2CCN(c3ccccn3)CC2)CC1)c1ccc(Cl)cc1 [Example 57, trans 4-Chloro-N-[4-[2-[4-(2-pyridinyl)-1-piperazinyl]ethyl]cyclohexyl]benzamide] |  | 620 | 0.51 | 
5 | OC1(c2cccnc2)CCC(CCN2CCN(c3ccccn3)CC2)CC1 (centres unmarked) [Example 10, 1-(3-Pyridinyl)-4-[2-[4-(2-pyridinyl)-1-piperazinyl]ethyl]cyclohexanol] |  | 847 | 0.37 | 
6 | COc1ccccc1C(=O)N[C@H]1CC[C@H](N2CCN(c3ccccn3)CC2)CC1 [Example 41, trans N-[4-[4-(2-Pyridinyl)-1-piperazinyl]cyclohexyl]-2-methoxybenzamide] |  | 530 | 1.9 | 
7 | OC1(c2cccs2)CCC(CN2CCN(c3ccccn3)CC2)CC1 (stereo not drawn) [Example 16, trans-4-[[4-(2-Pyridinyl)-1-piperazinyl]methyl]-1-(2-thienyl)cyclohexanol] |  |  | 4.3 | 
8 | OC1(c2cccnc2)CCC(N2CC=C(c3ccccc3)CC2)CC1 (stereo not drawn) [Example 30, cis-4-(3,6-Dihydro-4-phenyl-1(2H)-pyridinyl)-1-(3-pyridinyl)cyclohexanol] | 1.3 | 1250 |  | 
9 | OC1(c2cccs2)CCC(N2CCN(c3ccccn3)CC2)CC1 (centres unmarked) [Example 24, 4-[4-(2-Pyridinyl)-1-piperazinyl]-1-(2-thienyl)cyclohexanol] |  |  | > 30 | 
10 | OC1(c2ccccn2)CCC(N2CCN(c3ncccn3)CC2)CC1 (stereo not drawn) [Example 19, cis-1-(2-Pyridinyl)-4-[4-(2-pyrimidinyl)-1-piperazinyl]cyclohexanol] | 13.0 |  |  | 
11 | O=C(N[C@H]1CC[C@@H](CCN2CC=C(c3ccccc3)CC2)CC1)c1cccs1 [Example 70, cis N-[4-[2-(3,6-Dihydro-4-phenyl-1(2H)-pyridinyl)ethyl]cyclohexyl]-2-thiophenecarboxamide] |  | 280 |  | 
12 | OC1(c2ccccn2)CCC(N2CC=C(c3ccccc3)CC2)CC1 (centres unmarked) [Example 28, 4-(3,6-Dihydro-4-phenyl-1(2H)-pyridinyl)-1-(2-pyridinyl)cyclohexanol] |  |  | 1.8 | 
13 | Cc1ccc(C(=O)N[C@H]2CC[C@@H](CCN3CCN(c4ccccn4)CC3)CC2)cc1 [Example 55, cis 4-Methyl-N-[4-[2-[4-(2-pyridinyl)-1-piperazinyl]ethyl]cyclohexyl]benzamide] |  | 830 |  | 
14 | OC1(c2cccs2)CCC(CN2CCN(c3ccccn3)CC2)CC1 (stereo not drawn) [Example 17, cis-4-[[4-(2-Pyridinyl)-1-piperazinyl]methyl]-1-(2-thienyl)cyclohexanol] | 5.2 | 3900 |  | 
15 | O=C(N[C@H]1CC[C@H](N2CC=C(c3ccccc3)CC2)CC1)C1CCCCC1 [Example 50, trans N-[4-(3,6-Dihydro-4-phenyl-1(2H)-pyridinyl)cyclohexyl]cyclohexanecarboxamide] |  | 1600 | 1.1 | 
16 | OC1(c2cccs2)CCC(CCN2CC=C(c3ccccc3)CC2)CC1 (stereo not drawn) [Example 13, cis-4-[2-(3,6-Dihydro-4-phenyl-1(2H)-pyridinyl)ethyl]-1-(2-thienyl)cyclohexanol] |  |  | 2 | 51
17 | OC1(c2ccccc2)CCC(N2CCN(c3ccccn3)CC2)CC1 (centres unmarked) [Example 27, 1-Phenyl-4-[4-(2-pyridinyl)-1-piperazinyl]cyclohexanol] |  | 1660 | 0.83 | 
18 | OC1(c2nccs2)CCC(CCN2CCN(c3ccccn3)CC2)CC1 (centres unmarked) [Example 9, 4-[2-[4-(2-Pyridinyl)-1-piperazinyl]ethyl]-1-(2-thiazolyl)cyclohexanol] |  | 1550 | 1 | 
19 | O=C(N[C@H]1CC[C@H](N2CCN(c3ccccn3)CC2)CC1)c1ccc(Cl)cc1 [Example 43, trans 4-Chloro-N-[4-[4-(2-pyridinyl)-1-piperazinyl]cyclohexyl]benzamide] |  | 7790 | 0.78 | 
20 | OC1(c2ccccn2)CCC(N2CCN(c3ncccn3)CC2)CC1 (stereo not drawn) [Example 18, trans-1-(2-Pyridinyl)-4-[4-(2-pyrimidinyl)-1-piperazinyl]cyclohexanol] | > 30 |  |  | 
21 | OC1(c2cccnc2)CCC(N2CC=C(c3ccccc3)CC2)CC1 (stereo not drawn) [Example 29, trans-4-(3,6-Dihydro-4-phenyl-1(2H)-pyridinyl)-1-(3-pyridinyl)cyclohexanol] | 25.6 |  |  | 
22 | O=C(N[C@H]1CC[C@@H](CCN2CCN(c3ccccn3)CC2)CC1)c1ccc(Cl)cc1 [Example 56, cis 4-Chloro-N-[4-[2-[4-(2-pyridinyl)-1-piperazinyl]ethyl]cyclohexyl]benzamide] |  | 1620 | 6.3 | 
23 | O=C(N[C@H]1CC[C@@H](CCN2CC=C(c3ccccc3)CC2)CC1)c1ccccc1 [Example 69, cis N-[4-[2-(3,6-Dihydro-4-phenyl-1(2H)-pyridinyl)ethyl]cyclohexyl]benzamide] |  |  | 2.1 | 
24 | COc1ccc(C2(O)CCC(N3CCN(c4ccccn4)CC3)CC2)cc1 (centres unmarked) [Example 26, 1-(4-Methoxyphenyl)-4-[4-(2-pyridinyl)-1-piperazinyl]cyclohexanol] |  | 670 | 0.3 | 
25 | OC1(c2cccnc2)CCC(N2CCN(c3ccccn3)CC2)CC1 (stereo not drawn) [Example 23, cis-1-(3-Pyridinyl)-4-[4-(2-pyridinyl)-1-piperazinyl]cyclohexanol] | 1.6 | 1160 |  | 
26 | OC1(c2ccc(Cl)cc2)CCC(N2CCN(c3ccccn3)CC2)CC1 (stereo not drawn) [Example 1a, cis-1-(4-Chlorophenyl)-4-[4-(2-pyridinyl)-1-piperazinyl]cyclohexanol] | 0.86 | 816 |  | 
27 | OC1(c2ccsc2)CCC(N2CCN(c3ccccn3)CC2)CC1 (centres unmarked) [Example 25, 4-[4-(2-Pyridinyl)-1-piperazinyl]-1-(3-thienyl)cyclohexanol] |  | 2700 | 2.4 | 
28 | OC1(c2ccccn2)CCC(CCN2CCN(c3ccccn3)CC2)CC1 (centres unmarked) [Example 6, 1-(2-Pyridinyl)-4-[2-[4-(2-pyridinyl)-1-piperazinyl]ethyl]cyclohexanol] |  | 1050 | 0.34 | 
29 | OC1(c2ccccn2)CCC(N2CCN(c3ccccn3)CC2)CC1 (stereo not drawn) [Example 21, cis-1-(2-Pyridinyl)-4-[4-(2-pyridinyl)-1-piperazinyl]cyclohexanol] | 2.3 | 2780 |  | 
30 | O=C(N[C@H]1CC[C@H](N2CCN(c3ccccn3)CC2)CC1)c1cccs1 [Example 44, trans N-[4-[4-(2-Pyridinyl)-1-piperazinyl]cyclohexyl]-2-thiophenecarboxamide] |  | 2520 | 0.29 | 
